Laboratory results as given in patent US20240115557A1, “INHIBITORS OF RNA-GUIDED NUCLEASES AND USES THEREOF” (The Brigham and Women's Hospital, Inc., priority 2022, published 2024).

Molecular target: T1, SaCas9 (Staphylococcus aureus, UniProt J7RUA5)
T1 sequence (J7RUA5 1-1053): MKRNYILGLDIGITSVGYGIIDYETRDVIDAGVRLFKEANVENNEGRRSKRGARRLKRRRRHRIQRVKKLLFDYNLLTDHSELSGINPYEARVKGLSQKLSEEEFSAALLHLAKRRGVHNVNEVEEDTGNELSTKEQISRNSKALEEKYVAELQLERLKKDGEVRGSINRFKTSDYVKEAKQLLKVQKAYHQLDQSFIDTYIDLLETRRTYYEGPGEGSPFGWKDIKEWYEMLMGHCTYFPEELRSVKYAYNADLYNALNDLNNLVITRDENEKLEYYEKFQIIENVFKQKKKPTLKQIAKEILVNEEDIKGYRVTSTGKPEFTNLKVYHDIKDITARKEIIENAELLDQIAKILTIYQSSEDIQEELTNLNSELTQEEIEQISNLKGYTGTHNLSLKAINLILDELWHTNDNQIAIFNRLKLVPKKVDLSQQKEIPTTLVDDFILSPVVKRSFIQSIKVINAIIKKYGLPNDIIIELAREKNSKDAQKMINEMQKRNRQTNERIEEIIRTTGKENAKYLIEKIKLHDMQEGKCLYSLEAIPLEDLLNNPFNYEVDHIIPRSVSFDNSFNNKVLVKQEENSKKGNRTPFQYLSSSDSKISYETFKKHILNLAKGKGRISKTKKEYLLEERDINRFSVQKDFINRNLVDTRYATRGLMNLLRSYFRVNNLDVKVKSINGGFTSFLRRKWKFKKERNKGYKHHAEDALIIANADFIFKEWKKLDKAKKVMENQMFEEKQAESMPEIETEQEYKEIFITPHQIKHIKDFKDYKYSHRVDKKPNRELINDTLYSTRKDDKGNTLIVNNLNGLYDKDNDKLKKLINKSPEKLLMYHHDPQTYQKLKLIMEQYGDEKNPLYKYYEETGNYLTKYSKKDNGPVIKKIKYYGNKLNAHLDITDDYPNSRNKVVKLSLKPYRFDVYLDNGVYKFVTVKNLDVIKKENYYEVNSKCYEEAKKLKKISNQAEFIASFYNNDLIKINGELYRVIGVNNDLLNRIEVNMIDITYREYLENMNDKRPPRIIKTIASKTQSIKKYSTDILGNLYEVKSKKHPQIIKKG
Experiment: Strand displacement assay, SaCas9 primary screen
Format: biochemical
Conditions: for Auto Zscore Rep 1 / Auto Zscore Rep 2 / Normalized Zscore Rep 1 / Normalized Zscore Rep 2: SaCas9 primary screen; for Auto Zscore Rep 1 / Normalized Zscore Rep 1: replicate 1; for Auto Zscore Rep 2 / Normalized Zscore Rep 2: replicate 2; for Normalized Zscore Rep 1 / Normalized Zscore Rep 2: weaker potential hits; for 3 sigma Hit: flag 1 = hit at 3 sigma; for 5 sigma Hit: flag 1 = hit at 5 sigma
Method in brief: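 Cas9 RNP (1:1.2 protein:gRNA) pre-formed in 20 mM Tris-HCl pH 7.5, 100 mM KCl, 5 mM MgCl2, used at 10 nM (2× stock) with Alexa-Fluor 647 substrate/quencher at 1 nM/5 nM (2× stock). Reaction ran 2.5 h at 37°C; strand displacement read as fluorescence. Hits called by Z-score: 3–5σ weak, >5σ strong.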

SMILES | Auto Zscore Rep 1 | Auto Zscore Rep 2 | Normalized Zscore Rep 1 | Normalized Zscore Rep 2 | 3 sigma Hit | 5 sigma Hit
c1ccc(Cc2nn3c(-c4cccnc4)nnc3s2)cc1 [Compound D727-0066] | 0.2456 | 1.309 | 0.1917 | 0.2236 | 1 | 1
Cc1nc2ccccc2n1Cc1nnc2n1N=C(N)CS2 [Compound D727-0339] | −1.123 | −1.939 | 0.1478 | 0.2051 | 1 | –
Cc1ccccc1OCc1nn2c(C(C)C)nnc2s1 [Compound D727-0350] | −0.2032 | 0.9814 | 0.2025 | 0.2065 | 1 | 1
Cc1ccccc1OCc1nn2c(C(C)(C)C)nnc2s1 [Compound D727-0351] | −0.02144 | −0.3042 | 0.2896 | 0.3227 | 1 | 1
Brc1ccc(OCc2nn3c(-c4ccccn4)nnc3s2)cc1 [Compound D727-0522] | 1.021 | 0.5297 | 0.3471 | 0.3776 | 1 | 1
Fc1ccc(OCc2nn3c(-c4ccccn4)nnc3s2)cc1 [Compound D727-0525] | 0.9393 | 1.066 | 0.3566 | 0.3426 | 1 | 1
NC(=O)c1c(NC(=O)COCc2cc(-c3ccc4c(c3)OCO4)on2)sc2c1CCCC2 [Compound E613-0091] | −0.4678 | −1.998 | 0.1515 | 0.3604 | 1 | –
NS(=O)(=O)c1ccc(CCNC(=O)C2=Cc3sc4c(c3CS2)CCCC4)cc1 [Compound E722-2588] | 0.2247 | −0.3407 | 0.2746 | 0.2871 | 1 | 1
NC(=O)c1sc(=S)n2c1[nH]c(=O)c1ccc(Cl)cc12 [Compound F083-0067] | −0.5214 | 0.84 | 0.2245 | 0.2068 | 1 | 1
CCCN1CCN(c2ccc(C(=O)O)cc2NC(=O)c2ccccc2Cl)CC1 [Compound F086-0004] | −1.483 | 1.076 | 0.2725 | 0.2108 | 1 | 1
CC(C)NC(=O)CN1CCN(c2ccc(C(=O)O)cc2NC(=O)c2ccccc2Cl)CC1 [Compound F086-0028] | −0.07719 | 0.5847 | 0.2467 | 0.2295 | 1 | 1
COCCCNC(=O)CN1CCN(c2ccc(C(=O)O)cc2NC(=O)c2ccccc2Cl)CC1 [Compound F086-0033] | −0.0657 | −0.1907 | 0.1937 | 0.2246 | 1 | 1
O=C(O)c1ccc(N2CCN(c3ccccn3)CC2)c(NC(=O)c2ccc(Br)cc2)c1 [Compound F086-0619] | 1.213 | 0.1224 | 0.2335 | 0.1451 | 1 | 1
Nc1c(C(=O)N2CCCC2)sc(=S)n1Cc1ccccc1 [Compound F128-0041] | 1.188 | −1.115 | 0.3576 | 0.3845 | 1 | 1
Nc1c(C(=O)N2CCCCC2)sc(=S)n1Cc1ccccc1 [Compound F128-0042] | −0.3436 | 0.3038 | 0.2801 | 0.2612 | 1 | 1
Nc1c(C(=O)NCC2CCCO2)sc(=S)n1-c1ccc(Cl)cc1 (centres unmarked) [Compound F128-0076] | −0.6285 | −1.451 | 0.3168 | 0.2064 | 1 | 1
CS(=O)(=O)Nc1cnc(N2CCC(C(N)=O)(N3CCCCC3)CC2)c(C(=O)O)c1 [Compound F293-0183] | 1.533 | −0.4148 | 0.2879 | 0.3283 | 1 | 1
O=C(O)c1cc(NS(=O)(=O)c2cc(F)ccc2F)cnc1N1CCC(N2CCCCC2)CC1 [Compound F293-0616] | −0.1879 | −0.1846 | 0.1887 | 0.1788 | 1 | –
CS(=O)(=O)Nc1cnc(N2CCC(CCN3CCOCC3)CC2)c(C(=O)O)c1 [Compound F293-0898] | 0.3628 | 0.2374 | 0.3858 | 0.277 | 1 | 1
CN(C)S(=O)(=O)Nc1cnc(N2CCC(CCN3CCCCC3)CC2)c(C(=O)O)c1 [Compound F293-0962] | −1.575 | −1.36 | 0.2533 | 0.277 | 1 | 1
CCN(Cc1ccccc1)c1ccc(NS(=O)(=O)c2ccc(OC)cc2)cc1C(=O)O [Compound F294-0003] | 0.9297 | −1.427 | 0.2547 | 0.2729 | 1 | 1
CN(C)S(=O)(=O)Nc1ccc(N2CCC(C(N)=O)(N3CCCCC3)CC2)c(C(=O)O)c1 [Compound F294-0183] | −1.66 | −0.5827 | 0.1624 | 0.2442 | 1 | –
